Measured values published in patent US5604256A, “Octahydronaphthalene oxime derivatives for cholesterol biosynthesis inhibition” (Sankyo Company, Limited, priority 1992, dated 1997).
Counter-ions that a name gives are not always drawn.

Biological target: T1, HMG-CoA reductase (Rattus norvegicus, UniProt P51639)
T1 sequence (P51639 1-887): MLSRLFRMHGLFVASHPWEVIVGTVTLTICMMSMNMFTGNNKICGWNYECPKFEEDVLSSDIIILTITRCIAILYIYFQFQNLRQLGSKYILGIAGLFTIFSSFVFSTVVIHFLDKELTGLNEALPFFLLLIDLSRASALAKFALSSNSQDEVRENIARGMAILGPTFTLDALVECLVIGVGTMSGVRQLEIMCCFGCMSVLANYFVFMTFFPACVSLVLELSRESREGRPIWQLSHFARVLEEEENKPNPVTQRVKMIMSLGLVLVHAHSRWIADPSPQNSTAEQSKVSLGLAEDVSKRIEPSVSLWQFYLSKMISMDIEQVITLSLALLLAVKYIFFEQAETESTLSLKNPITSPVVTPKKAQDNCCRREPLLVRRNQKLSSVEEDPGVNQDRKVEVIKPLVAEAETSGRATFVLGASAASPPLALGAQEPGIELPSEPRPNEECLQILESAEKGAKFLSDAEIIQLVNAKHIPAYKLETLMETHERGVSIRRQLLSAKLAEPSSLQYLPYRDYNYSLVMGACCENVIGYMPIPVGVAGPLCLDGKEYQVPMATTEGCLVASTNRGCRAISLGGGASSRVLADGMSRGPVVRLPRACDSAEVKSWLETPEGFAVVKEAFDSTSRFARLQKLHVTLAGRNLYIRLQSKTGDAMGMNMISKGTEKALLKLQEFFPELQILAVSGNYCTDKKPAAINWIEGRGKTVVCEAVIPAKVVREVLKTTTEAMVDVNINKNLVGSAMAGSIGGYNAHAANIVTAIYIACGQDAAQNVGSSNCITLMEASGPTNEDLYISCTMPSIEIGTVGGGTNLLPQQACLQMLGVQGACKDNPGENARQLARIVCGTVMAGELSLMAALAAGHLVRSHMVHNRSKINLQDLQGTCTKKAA
Assay: biochemical
Details: Table 3
Text: The determination of the inhibitory activity of the compounds was made using the method of Kuroda et al ["Biochimica et Biophysica Acta" Vol. 486, pp. 70-81 (1977)] which is a modification of the known method of D. J. Shapiro et al ["Analytical Biochemistry" Vol. 31, pp. 383-390 (1969)] with some improvements.

SMILES | IC50
CCC(C)C(=O)OC1CCC(=NOCc2c(C)noc2C)C2=CC(=O)C(C)C(CCC(=O)CC(O)CC(=O)O)C21 (stereo not drawn) | 16.3 nM
CCC(C)C(=O)OC1CCC(=NOCc2ccccc2)C2=CC(=O)C(C)C(CCC(=O)CC(O)CC(=O)O)C21 (stereo not drawn) | 16.3 nM
CCC(C)C(=O)OC1CCC(=NOCc2cnoc2)C2=CC(=O)C(C)C(CCC(=O)CC(O)CC(=O)O)C21 (stereo not drawn) | 20.2 nM
CCC(C)C(=O)OC1CCC(=NOCc2ccccc2)C2=CC(=O)C(C)C(CCC(O)CC(O)CC(=O)O)C21 (stereo not drawn) [Na salt of Compound of Preparation 1] | 18.5 nM
CCC(C)C(=O)OC1CCC(=NOCc2cnoc2)C2=CC(=O)C(C)C(CCC(O)CC(O)CC(=O)O)C21 (stereo not drawn) [Na salt of Compound of Preparation 9] | 22.8 nM
CCC(C)C(=O)OC1CCC(=NOCc2c(C)noc2C)C2=CC(=O)C(C)C(CCC(O)CC(O)CC(=O)O)C21 (stereo not drawn) [Na salt of Compound of Preparation 11] | 17.3 nM
